# Laboratory results as given in patent US9278924B2, “5-nonyloxytryptamine and related intracellular PH acidifiers for the treatment and prevention of cancer” (THE JOHNS HOPKINS UNIVERSITY, priority 2011, dated 2016).
# Counter-ions that a name gives are not always drawn. The star is where a group is joined. Cbz = O=C(OCc1ccccc1)*; CH2F = FC*
# Experiments:
# [1] = test system: GBM-derived neurosphere cell lines; assay: MTT growth assay; format: cell-based; details: 72 h, read-out: inhibition of growth (viable cell mass, MTT)
# Method: FIG. 2 depicts MTT growth assays for neurospheres treated with 5-NOTO. Cells were plated in 96-multiwell plates and treated with either DM50 (Control •) or 5-NOTO (at 1 uM ▪ and 10 μM ▴). MTT reagent was added to indirectly measure viable cell mass at each time point. Absorbance was measured wt 490 nm using an Epoch Microplate Spectrophotometer (BioTek).
# 5-NOTO is a Potent Inhibitor of Cancer Cell Growth. To test the hypothesis that as a pH acidifier, 5-NOTO should reduce cell proliferation, we treated three independent GBM-derived neurosphere cell lines with DMSO (control), 1 μM, and 10 μM 5-NOTO for three days. Accumulation of viable cell mass was measured using MTT growth assay (Promega). Absorbance (A490) was measured using an Epoch Microplate Spectrophotometer (Biotek) at the indicated time points.
# GBM neurospheres [2] = assay: Guava ViaCount cell viability, IC50 determination; format: cell-based; details: 48 hours, all neurospheres tested; read-out: IC50 (concentration required to kill 50% of the cells)
# Method: Cells were treated for 48 hours with various concentrations of 5-NOTO and incubated for 48 hours in humidified incubator as which point, Guava Viacount reagent (Millipore) was used to assess the percentage of viable cells remaining in each treatment well. IC50 (concentration of drug required for 50% reduction in cell viability) was calculated using Graphpad 5.0 software package. The respective IC50 is indicated for each neurosphere line.
# Determination of cytotoxic effects. We next sought to determine the concentration of 5-NOTO which is required to kill 50% of the cells (e.g. IC50). Cells were plated in 24-well plates at 25,000 cells/well and treated for 48 hours with either DMSO (control) or various concentration of 5-NOTO (FIG. 2). Guava PCA flow cytometry system was used with the Guava Viawunt reagent (Millipore) to determine cell viability. Data was analyzed using GraphPad 5.0 software package. IC50 was calculated using non linear regression.
# 020913 GBM neurospheres = assay: Annexin V apoptosis assay; format: cell-based; details: 10 μM, 24 hours; DMSO 10-20%
# Method: (§1) FIG. 4 depicts apoptosis analysis for GBM neurospheres treated with 5-NOTO for 24 hours. Cells were plated and then treated for 24 hours with DMSO (control), 1 μM and 10 μM 5-NOTO. Cells were then processed for Annexin V assay using the Nexin reagent (Millipore) and % Annexin positive cells was determined using flow cytometry.
# (§2) 5-NOTO Induces Apoptosis in GBM Neurospheres. To ascertain that 5-NOTO induces apoptosis, cells were treated with DMSO (control), 1 μM, and 10 μM 5-NOTO for 24 hours at which point cells were processed for Annexin V apoptosis assay (Millipore), which is a simple and effective method to detect one of the earliest events in apoptosis, the externalization of phosphatidylserine in living cells. […] Higher levels of 5-NOTO (100 μM) eliminated the vast majority of viable cells (80-90%) 48 hours post treatment (Data not shown)).
# 040622 GBM neurospheres [3] = assay: Annexin V apoptosis assay; format: cell-based; details: 10 μM, 24 hours; DMSO 10-20%
# Method: as §1, §2
# 040821 GBM neurospheres = assay: Annexin V apoptosis assay; format: cell-based; details: 10 μM, 24 hours; DMSO 10-20%
# Method: as §1, §2
# GBM neurospheres [4] = assay: Elimination of viable cells at high 5-NOTO level; format: cell-based; details: 48 h, read-out: viable cells eliminated
# Method: as §2
# GBM neurosphere lines = assay: cAMP GLO assay of cellular cAMP levels; format: cell-based; details: three GBM neurosphere lines
# Description: In this assay cAMP levels are inversely correlated with luminescence (RLU). Cyanopindolol is a Gα antagonist and is required for detection of 5HTR1B activity. Sumatriptan, another 5HTR1B agonist (similar to 5-NOTO), and forskolin {a known Gα agonist) were used as controls.
# The Serotonin Receptors 5HTR1B and 5HTR1A are Not the Target Of 5-NOTO Action in GBM. 5-NOTO is not an FDA approved drug but its biological target is known. 5-NOTO is a specific agonist for the 5HTR1B serotonin receptor (400 times more specific for 5HTR1B then for 5HTR1A). 5HTR1B (as well as other 5HTR1 isoforms) are heterotrimeric G-protein coupled receptors which interact with Gα an inhibitor of adenylate cyclase. Therefore, we sought to determine if treatment with 5-NOTO will result in decreased cellular cAMP levels as activation of Gα should inhibit adenylate cydase, the enzyme which catalyzes the conversion of ATP to cAMP. To this end, cells were treated with cyanopindolol, an antagonist of 5HTR1B, which should increase adenylate cyclase activity (if 5HTR1B is functional), and either 5-NOTO or sumatriptan, the latter being similar to 5-NOTO, activating both 5HTR1B and 5HTR1A. […] Importantly, sumatriptan also had no effect on cellular cAMP levels, strengthening the notion that 5HTR1B (and likely 5HTR1A) have very little to no effect on cellular cAMP levels in the GBM models.
# 020913 neurospheres = assay: ATPlite luminescence assay of cellular ATP; format: cell-based; details: 1 μM and 10 μM, 1 or 3 hours
# Method: Cells were incubated for either 1 or 3 hours in the presence of DMSO (control) or 5-NOTO (1 μM and 10 μM), ATP levels were determined using ATPlite Luminescence Assay System (PerkinElmer) according to manufacturer instructions.
# 5-NOTO Induces Rapid Necrosis in GBM Neurospheres. One of the classical features of necrotic cells is rapid and significant drop in intracellular ATP levels. The effect of 5-NOTO on ATP release was assayed at 1 hr and 3 hr post-treatment as follows. Briefly, 020913 neurospheres were triturated to a single-cell suspension and 20,000 cells were plated per well. Cells were plated in triplicates for vehicle alone, 1 μM 5-NOTO, and 10 μM 5-NOTO. At each time point, 100 μl of ATPlite 1-step reagent (Perkin Elmer) was added to each well and incubated with shaking for 2 minutes. After dark adaptation for 10 minutes, the samples were read using a microplate reader (Perkin Elmer). Readings were averaged and the percent differences in ATP release between treated and vehicle alone were calculated (RLU). This experiment was performed in triplicate with similar results (FIG. 6).
# 040622 GBM neurospheres [5] = assay: Apoptosis/necrosis evaluation with Guava Nexin reagent, 30 minutes; format: cell-based
# Method: Cells were treated with DMSO (control), the multi caspase inhibitor Z-VAD-FMK (20 μM), 5-NOTO (10 μM) or the latter two in combination. Guava Nexin assay reagent was used to determine Viable (black), apoptotic (yellow), and necrotic/apoptotic (Red) cell fractions.
# To test necrotic cell death directly, cells were treated with DMSO (control) or 10 μM 5-NOTO for 30 minutes followed by apoptosis/necrosis evaluation using Guava PCA flow cytometer and Nexin reagent (Millipore). […] Similar results were documented for 020913 and 040821 neurospheres (not shown).
# [6] = Guava ViaCount viability assay; format: cell-based; details: human, uveal melanoma cell line OCM1, read-out: percentage of viable cells
# Method: (§3) Cells were plated in 24-well plates and treated with DMSO or t 10 μM 5-NOTO. 48 hours later, cell viability was determined using Guava PCA flow cytometer with Guava ViaCount reagent.
# (§4) We next sought to examine if 5-NOTO is generally cytotoxic or if its cytotoxicity may be specific to some cancer types. To this end, we examined the apoptotic induction in a uveal melanoma cell line, OCM 1. Cells were treated for 48 hours with 10 μM of 5-NOTO followed by Viacount assay. 5-NOTO had no effect on viability of OCM1 as the percentage of viable cells remained greater than 90% (FIG. 8). In contrast, percent viability in 020913 neurospheres treated with 10 μM 5-NOTO was only 10%.
# [7] = test system: GBM-derived neurosphere line 020913; assay: Guava ViaCount viability assay; format: cell-based; details: 48 h, read-out: percent viability
# Method: as §3, §4
# GBM neurospheres 020913 = assay: Necrosis by Nexin staining and flow cytometry, 90 minutes; format: cell-based; details: 10 μM, DMSO 13%
# Method: (§5) FIG. 9 depicts induction of necrotic cell death by 5-NOTO. GBM neurospheres 020913 and 040622 and normal neural stem cells immortalized with v-Myc (VNSC) were treated with DMSO (control, black bars) or with 10 μM 5-NOTO (red bars). Cells were treated for 90 minutes and then processed for viability assay using Nexin staining % Necrosis was determined by flow cytometry. […] VNSCs on the other hand were completely resistant to 5-NOTO showing 26% and 25% in DMSO and 5-NOTO treatments, respectively.
# as §5, with “Induction” for “FIG. 9 depicts induction”, “Necrotic Cell Death” for “necrotic cell death”, “5-NOTO.” for “5-NOTO (red bars).”
# GBM neurospheres 040622 = assay: as above; format: cell-based; details: 10 μM, DMSO 5%
# Method: as §5
# as §5, with “Induction” for “FIG. 9 depicts induction”, “Necrotic Cell Death” for “necrotic cell death”, “5-NOTO.” for “5-NOTO (red bars).”
# [8] = test system: normal neural stem cells immortalized with v-Myc (VNSC); assay: as above; format: cell-based; details: 10 μM, DMSO 26%
# Method: as §5
# as §5, with “Induction” for “FIG. 9 depicts induction”, “Necrotic Cell Death” for “necrotic cell death”, “5-NOTO.” for “5-NOTO (red bars).”
# [9] = biological target: 5HTR1B serotonin receptor (Homo sapiens, UniProt P28222); details: agonist; cited from earlier work
# 5HTR1B serotonin receptor, sequence (P28222 whole entry): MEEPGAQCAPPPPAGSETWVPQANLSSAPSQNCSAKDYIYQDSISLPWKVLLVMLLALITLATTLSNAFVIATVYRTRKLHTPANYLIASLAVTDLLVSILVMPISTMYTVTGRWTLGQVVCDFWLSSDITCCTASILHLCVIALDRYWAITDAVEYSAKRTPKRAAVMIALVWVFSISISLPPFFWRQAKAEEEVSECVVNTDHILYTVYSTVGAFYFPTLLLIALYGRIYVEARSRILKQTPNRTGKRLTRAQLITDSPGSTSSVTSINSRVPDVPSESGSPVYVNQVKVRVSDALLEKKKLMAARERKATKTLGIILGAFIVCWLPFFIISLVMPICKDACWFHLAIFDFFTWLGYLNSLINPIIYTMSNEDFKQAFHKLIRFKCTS
compound,measurement,setting,value
"CCCCCCCCCOc1ccc2[nH]cc(CCN)c2c1 [5-NOTO, 5-nonyloxytryptamine oxalate]",cytotoxicity at 10 µM,[1],> 90%
same,IC50,GBM neurospheres [2],~10 µM
same,apoptotic cell fraction (Annexin V positive),020913 GBM neurospheres,> 80%
same,apoptotic cell fraction (Annexin V positive),040622 GBM neurospheres [3],more than 60%
same,apoptotic cell fraction (Annexin V positive),040821 GBM neurospheres,> 70%
same,cytotoxicity at 100 µM,GBM neurospheres [4],80 to 90%
same,effect on cellular cAMP levels,GBM neurosphere lines,not affected
same,effect on cellular ATP levels,020913 neurospheres,depletes cellular ATP levels in a time and dose dependent fashion
same,necrotic/dead fraction,"040622 GBM neurospheres [5]; 10 μM, 30 minutes, DMSO 15.83%",54.17%
same,"viability at 48 h, 10 µM",[6],> 90%
same,viability at 10 µM,[7],10%
same,% necrosis,GBM neurospheres 020913,56%
same,% necrosis,GBM neurospheres 040622,65%
same,% necrosis,[8],25%
same,specificity for 5HTR1B over 5HTR1A,[9],400 times
"CC(C)(C)NCC(O)COc1cccc2[nH]c(C#N)cc12 (stereo not drawn) [Cyanopindolol, cyanopindolol]",effect on cellular cAMP levels,GBM neurosphere lines,not affected
CNS(=O)(=O)Cc1ccc2[nH]cc(CCN(C)C)c2c1 [sumatriptan],effect on cellular cAMP levels,GBM neurosphere lines,no effect
Cbz-Val-Ala-Asp-CH2F [reference compound],effect on 5-NOTO-induced necrotic/dead cell fraction,"040622 GBM neurospheres [5]; pre-treatment with 20 μM Z-VAD-FMK, then 10 μM 5-NOTO",no effect
